The test concerns the target full-length human BTK (Homo sapiens (Human), UniProt Q06187). In words: Assay A: microfluidic off-chip mobility shift assay against BTK enzyme. In kind it is biochemical. Here is the method: Assay A: Microfluidic Off-Chip Mobility Shift Assay Protocol for Potency Assessment Against BTK Enzyme
The protocol below describes microfluidic, off-chip mobility shift kinase assay to measure inherent potency of compounds against BTK enzyme.
5 uL of enzyme buffer and 7.5 uL of ATP/kinKDR peptide substrate mix were added to Matrix (#115304) 384-well, sterile, polypropylene plates (Thermo Fisher Scientific, Hudson, N.H.) with 125 nL of serially diluted compounds prepared in 100% DMSO, and incubated for 90 min. at 27° C. Following the incubation period, reactions were stopped by adding 60 uL stop buffer consisting of 100 mM HEPES, pH 7.5, 0.015% Brij-35 (30%), 0.277% Coating Reagent #3 (Caliper Life Sciences, Mountain View, Calif.), 5% DMSO. Stopped reactions were monitored at −2 PSI, −3000 V/−700 V in a LabChip 3000 plate reader from Caliper Life Sciences, a PerkinElmer Company (Hopkinton, Mass.), and the activity was measured by off-chip mobility shift assay measuring the charge/mass difference between substrate and product resulting from peptide phosphorilation. IC50 and efficacy were determined by plotting log [Inhibitor] vs. % Activity in GeneData Screener (Basel. Switzerland).

Sequence of full-length human BTK (Q06187 whole entry): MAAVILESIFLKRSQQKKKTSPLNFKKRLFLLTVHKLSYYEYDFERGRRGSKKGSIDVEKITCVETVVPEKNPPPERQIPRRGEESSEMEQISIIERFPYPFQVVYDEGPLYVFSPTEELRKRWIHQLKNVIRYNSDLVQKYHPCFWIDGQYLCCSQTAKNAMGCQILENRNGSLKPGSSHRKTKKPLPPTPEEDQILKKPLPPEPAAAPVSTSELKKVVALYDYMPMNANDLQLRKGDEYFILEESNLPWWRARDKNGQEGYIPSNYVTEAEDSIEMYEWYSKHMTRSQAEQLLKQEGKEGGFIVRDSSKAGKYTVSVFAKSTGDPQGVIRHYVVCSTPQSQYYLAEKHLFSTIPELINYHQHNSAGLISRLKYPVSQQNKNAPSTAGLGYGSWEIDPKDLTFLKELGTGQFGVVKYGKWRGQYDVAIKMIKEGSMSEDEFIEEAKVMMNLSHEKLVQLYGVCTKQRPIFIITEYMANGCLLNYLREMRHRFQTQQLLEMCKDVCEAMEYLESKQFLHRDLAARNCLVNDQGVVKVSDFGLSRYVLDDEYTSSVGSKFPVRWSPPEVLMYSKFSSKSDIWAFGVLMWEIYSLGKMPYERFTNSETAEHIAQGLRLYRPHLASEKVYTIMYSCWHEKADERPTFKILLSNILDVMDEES

With `COc1ccc(-c2nc3c(-c4ccc(CNC(=O)c5nnc(C(C)(C)C)o5)c(F)c4)ccnc3[nH]2)nc1` [Example 158, 5-tert-butyl-N-([2-fluoro-4-[2-(5-methoxypyridin-2-yl)-3H-imidazo[4,5-b]pyridin-7-yl]phenyl]methyl)-1,3,4-oxadiazole-2-carboxamide], the IC50 (usually the midpoint of a concentration-inhibition curve) was less than 100 nM.

With `CC(C)(C)OC(=O)N1CC=C(c2nc3c(-c4ccc(CNC(=O)c5noc(C(C)(C)C)n5)c(F)c4)ccnc3[nH]2)CC1` [Example 137, tert-butyl 4-(7-(4-((5-(tert-butyl)-1,2,4-oxadiazole-3-carboxamido)methyl)-3-fluorophenyl)-3H-imidazo[4,5-b]pyridin-2-yl)-5,6-dihydropyridine-1(2H)-carboxylate], the IC50 was less than 100 nM.

For the compound `Cn1cc(-c2nc3c(-c4ccc(CNCc5ccc(F)c(F)c5)c(F)c4)ccnc3[nH]2)cn1` [Example 174, N-(3,4-difluorobenzyl)-1-(2-fluoro-4-(2-(1-methyl-1H-pyrazol-4-yl)-3H-imidazo[4,5-b]pyridin-7-yl)phenyl)methanamine], the concentration for half-maximal inhibition (IC50) was more than 5000 nM.

`Cn1cc(-c2nc3c(-c4cccc(CNC(=O)c5noc(C(C)(C)C)n5)c4)ccnc3[nH]2)cn1` [Example 87, 5-tert-Butyl-N-([3-[2-(1-methyl-1H-pyrazol-4-yl)-3H-imidazo[4,5-b]pyridin-7-yl]phenyl]methyl)-1,2,4-oxadiazole-3-carboxamide]: the IC50 was in the range of 1000 to 5000 nM.

With `NCc1ccc(-c2ccnc3[nH]c(-c4cnn(C5CCC5)c4)nc23)cc1F` [Example 188, 4-[2-(1-Cyclobutyl-1H-pyrazol-4-yl)-3H-imidazo[4,5-b]pyridin-7-yl]-2-fluoro-benzylamine], the IC50 lay within 1000 to 5000 nM.

On to `Cn1cc(-c2nc3c(-c4ccc(CNS(=O)(=O)CCC5CCC5)c(F)c4)ccnc3[nH]2)cn1` [Example 178, 2-cyclobutyl-N-(2-fluoro-4-(2-(1-methyl-1H-pyrazol-4-yl)-3H-imidazo[4,5-b]pyridin-7-yl)benzyl)ethanesulfonamide], for which the IC50 lay within 1000 to 5000 nM.

Regarding `Cc1ccc(-n2ccn(-c3cccc(-c4ccnc5[nH]c(-c6ccc(C(=O)N7CCOCC7)cc6)nc45)c3CO)c2=O)cc1` [Example 96, 1-[2-(Hydroxymethyl)-3-(2-[4-[(morpholin-4-yl)carbonyl]phenyl]-3H-imidazo[4,5-b]pyridin-7-yl)phenyl]-3-(4-methylphenyl)-2,3-dihydro-1H-imidazol-2-one], the IC50 was 100 to 1000 nM.

For the compound `Cc1ccc(S(=O)(=O)NCc2ccc(-c3ccnc4[nH]c(-c5cnn(C)c5)nc34)cc2F)cc1` [Example 175, N-(2-fluoro-4-(2-(1-methyl-1H-pyrazol-4-yl)-3H-imidazo[4,5-b]pyridin-7-yl)benzyl)-4-methylbenzenesulfonamide], the IC50 was more than 5000 nM.

`CC(C)(C)c1noc(C(=O)NCc2ccc(-c3ccnc4[nH]c(-c5ccc(N6CCCCC6)cn5)nc34)cc2F)n1` [Example 157, 3-tert-Butyl-N-[(2-fluoro-4-[2-[5-(piperidin-1-yl)pyridin-2-yl]-3H-imidazo[4,5-b]pyridin-7-yl]phenyl)methyl]-1,2,4-oxadiazole-5-carboxamide]: the IC50 is less than 100 nM.

For the compound `Cn1cc(-c2nc3c(-c4ccc(CN5CCOc6cc(C7CC7)cc(F)c6C5=O)nc4)ccnc3[nH]2)cn1` [Example 171, 8-cyclopropyl-6-fluoro-4-([5-[2-(1-methyl-1H-pyrazol-4-yl)-3H-imidazo[4,5-b]pyridin-7-yl]pyridin-2-yl]methyl)-2,3,4,5-tetrahydro-1,4-benzoxazepin-5-one], the 50% inhibitory concentration (IC50) was less than 100 nM.

`Cn1cc(-c2nc3c(-c4ccc(CNCc5cccnc5)c(F)c4)ccnc3[nH]2)cn1` [Example 173, N-(2-fluoro-4-(2-(1-methyl-1H-pyrazol-4-yl)-3H-imidazo[4,5-b]pyridin-7-yl)benzyl)-1-(pyridin-3-yl)methanamine]: the IC50 was more than 5000 nM.

Source of the values: patent US11098041B2 (Merck Patent GmbH, priority 2014, dated 2021).
